Experimental data as given in PubChem BioAssay AID248 (DTP/NCI, 2004).
Where “and” joins values, the source holds several entries; their conditions need not be identical. Equal entries are not always repeated. Toxic doses and inconclusive results are not listed. Cut-off read from the data, not from the text of the source: active = T/C of 150% or more; inactive = T/C below 125%.

System: L1210 leukemia ip in BDF1 mice, survival T/C
Assay: NCI In Vivo Anticancer Drug Screen. Data for tumor model L1210 Leukemia (intraperitoneal) in B6D2F1 (BDF1) mice
Conditions: endpoint: mean survival time, higher = longer survival
Method in brief: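 Tumor was transplanted into mice, which were then dosed with test compound or vehicle alone. Survival was recorded for each group, and the treated figure was expressed relative to the control figure.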

Measured: T/C

CNC=O
inactive: dose: 32.0 mg/kg/injection, schedule: Q01DX015 (ip), vehicle: saline 94 % of control | dose: 42.87 mg/kg/injection, schedule: Q01DX Z (ip), vehicle: carboxymethylcellulose (CMC) 102 % of control | dose: 42.88 mg/kg/injection, schedule: Q01DX Z (ip), vehicle: carboxymethylcellulose (CMC) 107 % of control | dose: 44.12 mg/kg/injection, schedule: Q01DX Z (ip), vehicle: carboxymethylcellulose (CMC) 98 % of control | dose: 63.0 mg/kg/injection, schedule: Q01DX015 (ip), vehicle: saline 94 % of control | dose: 75.0 mg/kg/injection, schedule: Q01DX009 (ip), vehicle: saline 112 % of control | dose: 85.75 mg/kg/injection, schedule: Q01DX Z (ip), vehicle: carboxymethylcellulose (CMC) 103 % of control and 113 % of control | dose: 125.0 mg/kg/injection, schedule: Q01DX015 (ip), vehicle: saline 102 % of control | dose: 125.0 mg/kg/injection, schedule: Q01DX Z (ip), vehicle: saline 110 % of control | dose: 150.0 mg/kg/injection, schedule: Q01DX009 (ip), vehicle: saline 112 % of control | dose: 150.0 mg/kg/injection, schedule: Q01DX Z (ip), vehicle: saline 114 % of control | dose: 171.5 mg/kg/injection, schedule: Q01DX Z (ip), vehicle: carboxymethylcellulose (CMC) 110 % of control and 115 % of control | dose: 176.5 mg/kg/injection, schedule: Q01DX Z (ip), vehicle: carboxymethylcellulose (CMC) 111 % of control | dose: 225.0 mg/kg/injection, schedule: Q01DX001 (ip), vehicle: saline 101 % of control | dose: 225.0 mg/kg/injection, schedule: Q04DX003 (ip), vehicle: saline 97 % of control | dose: 250.0 mg/kg/injection, schedule: Q01DX015 (ip), vehicle: saline 110 % of control | dose: 300.0 mg/kg/injection, schedule: Q01DX009 (ip), vehicle: saline 121 % of control | dose: 343.0 mg/kg/injection, schedule: Q01DX Z (ip), vehicle: carboxymethylcellulose (CMC) 101 % of control and 118 % of control | dose: 353.0 mg/kg/injection, schedule: Q01DX Z (ip), vehicle: carboxymethylcellulose (CMC) 100 % of control | dose: 450.0 mg/kg/injection, schedule: Q01DX001 (ip), vehicle: saline 97 % of control | dose: 450.0 mg/kg/injection, schedule: Q04DX003 (ip), vehicle: saline 101 % of control | dose: 600.0 mg/kg/injection, schedule: Q01DX Z (ip), vehicle: saline 121 % of control | dose: 900.0 mg/kg/injection, schedule: Q01DX001 (ip), vehicle: saline 95 % of control | dose: 900.0 mg/kg/injection, schedule: Q04DX003 (ip), vehicle: saline 119 % of control | dose: 1000.0 mg/kg/injection, schedule: Q01DX015 (ip), vehicle: saline 105 % of control
